The text below walks through data of PMC3368886, “ATPase Cycle and DNA Unwinding Kinetics of RecG Helicase” (PLoS ONE, 2012).

One experiment addresses T1, RecG (Thermotoga maritima, UniProt Q9WY48).
T1 construct: made in house
T1 sequence (Q9WY48 1-780): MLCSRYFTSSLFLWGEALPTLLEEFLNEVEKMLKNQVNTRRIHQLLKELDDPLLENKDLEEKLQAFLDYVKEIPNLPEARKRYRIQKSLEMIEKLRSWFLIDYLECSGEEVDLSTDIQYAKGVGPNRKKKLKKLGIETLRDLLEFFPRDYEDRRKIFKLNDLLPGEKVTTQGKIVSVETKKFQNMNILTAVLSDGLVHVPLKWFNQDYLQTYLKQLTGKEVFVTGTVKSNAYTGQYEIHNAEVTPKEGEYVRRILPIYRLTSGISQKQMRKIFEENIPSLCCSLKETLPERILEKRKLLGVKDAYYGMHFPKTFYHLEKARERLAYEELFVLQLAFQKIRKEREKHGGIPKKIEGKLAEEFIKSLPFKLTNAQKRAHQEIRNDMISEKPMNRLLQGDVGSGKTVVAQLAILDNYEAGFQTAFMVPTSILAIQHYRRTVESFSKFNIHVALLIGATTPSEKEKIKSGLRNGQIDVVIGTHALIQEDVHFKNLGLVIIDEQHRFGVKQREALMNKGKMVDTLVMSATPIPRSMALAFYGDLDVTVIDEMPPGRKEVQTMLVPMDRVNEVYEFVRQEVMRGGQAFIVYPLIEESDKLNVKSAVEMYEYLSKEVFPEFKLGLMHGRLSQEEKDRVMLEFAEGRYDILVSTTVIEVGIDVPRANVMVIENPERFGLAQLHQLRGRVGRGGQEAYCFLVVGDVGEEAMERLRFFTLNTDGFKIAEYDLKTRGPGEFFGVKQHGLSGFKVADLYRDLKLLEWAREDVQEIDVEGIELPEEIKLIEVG
In words: Steady-state ATPase rate measurements with phosphate biosensor MDCC-PBP. The experiment is classed as biochemical. As to conditions: 10 µM ATP, varying inhibitor, 500 nM DNA junction (A40:B40), 20°C. An excerpt:
Steady-state measurements were made to gain an overall assessment of the reaction and the affinities of various nucleotides before investigating the individual steps in the ATPase cycle. A two-strand DNA junction, which contains two 20-bp regions of complementary and non-complementary sequences (A40:B40 Figure 1 and Table S1), was used in all these measurements. This forms a Y-shape structure and RecG translocates one single-stranded arm, but then remains bound to the end of the junction still hydrolyzing ATP [10].
All reactions with RecG and DNA were done at 20°C in a buffer containing 50 mM Tris⋅acetate (pH 8.0), 30 mM potassium acetate, 3 mM magnesium acetate and 1 mM DTT. ATPase measurements using MDCC-PBP were taken in the presence of a Pi mop, as described above. Steady-state ATPase measurements were taken in a solution (60 µl) at 20°C, containing 10 nM RecG, 500 nM DNA junction (A40∶B40, see Table S1) and 10 µM MDCC-PBP with varying nucleotide concentrations as substrate or inhibitor [23].

Experiment [1] has as its target T2, RecG⋅DNA(A40:B40) (Thermotoga maritima, UniProt Q9WY48).
T2 construct: made in house
T2 sequence (Q9WY48 1-780): T1 sequence (Q9WY48 1-780)
Kind of experiment: Pi release with excess ATP, global fit to ATPase cycle model. Type of experiment: biochemical. As to conditions: fixed to be consistent with K i for ADP. On the procedure:
The rate of Pi release was measured after mixing RecG⋅DNA with excess ATP, using the phosphate biosensor, in the stopped-flow apparatus (Figure 6A). […] Both phases are dependent on ATP concentration. The lag decreased, while the rate of the linear phase increased with greater concentrations of ATP. The lag is due to the steps prior to Pi release, namely ATP binding and cleavage. […] Such a burst phase would result from the relatively fast Pi release of the initial cycle before the Pi release of subsequent cycles was limited by slow ADP release.
(§1) Figure 6 ATPase cycle measurements with unmodified nucleotides. (A) Phosphate measurements at different ATP concentrations. 0.5 µM RecG, premixed with 2.5 µM DNA (A40:B40), was then mixed in the stopped-flow apparatus with ATP at the micromolar concentrations shown, in the presence of 10 µM MDCC-PBP. (B) Best fit time courses of the Pi release, based upon a model of the ATPase cycle, as described in the text. Curves were obtained by glogal fitting the curves at different concentrations, using Global kinetic Explorer. Note that in comparison, the experimental time courses show a small transient of Pi at times <100 ms. This is likely to be due to free Pi and this behavior, overlaying a lag, has been observed previously in multi-turnover measurements. (C) ADP Release kinetics. 10 µM RecG⋅DNA (A40∶B40) was pre-bound with 10 µM ADP before mixing with an excess of mantADP (20 µM): these concentrations are final in the mixing chamber. The increase in fluorescence was fitted to single exponential giving the dissociation rate constant of 11.4 (±2.2) s^−1. Rate constants were independent of mantADP concentration in the range of 20–80 µM.
A scheme of the ATPase cycle (Figure 2) was used to simulate the data to assess the individual rate constants. […] The simulated traces (Figure 6B) were obtained from a global fit to the experimental data. This was done by allowing only the rate constants that have maximum influence on the curve shapes to vary. Cleavage and Pi release were assumed to be irreversible. For the fit, Pi release was fixed at 100 s^–1, ADP release at 12.5 s^–1, as the fitting was relatively insensitive to changes in these constants. […] The resulting best fit gave rate constants for ATP binding as 0.65 (±0.02) µM^−1s^−1, dissociation of ATP as 10.0 (±0.6) s^−1, cleavage as 7.1 (±0.1) s^−1. The fit gave a cleavage rate constant similar to the value of k cat from the steady-state analysis (Table 1a). The rate constant for ADP release may be only slightly larger than that of cleavage step.
Data were fitted to theoretical equations using the stopped-flow software or Grafit. Kinetic simulations were performed using Berkeley Madonna (Version 8.3, University of California at Berkeley) and using Global Kinetic Explorer (Kintek). […]

In experiment [2] the target is T2, RecG⋅DNA(A40:B40). In words: ADP dissociation kinetics by displacement with excess mantADP. Type of experiment: binding. Here is the method:
as §1, with “10 µM RecG⋅DNA (A40∶B40) was pre-bound with 10 µM ADP before mixing with an excess of mantADP (20 µM): these concentrations are final in the mixing chamber.” left out, “Rate constants were independent of mantADP concentration in the range of 20–80 µM.” left out
A direct measurement of ADP dissociation kinetics was possible because of its relatively tight binding to RecG, which allowed quantitative formation of the ADP complex. […] The rate constant for dissociation was determined from a single exponential fit as 11.4 (±2) s^−1 (Figure 6C). This value fits well with the model whereby the dissociation rate constant is calculated as ≥12.5 s^−1.

`Nc1ncnc2c1ncn2[C@@H]1O[C@H](COP(=O)(O)OP(=O)(O)O)[C@@H](O)[C@H]1O` [ADP]: the affinity at RecG corresponds to a Ki of 7.3 µM. On RecG⋅DNA(A40:B40) [1], the “ADP binding rate constant in the model” value worked out at 1.7 µM^−1s^–1. Also, on RecG⋅DNA(A40:B40) [2] (10 µM RecG⋅DNA pre-bound with 10 µM ADP, mixed with 20 µM mantADP), the “ADP dissociation rate constant” value is on record as 11.4 (±2.2) s^−1. Moreover, the “estimated ADP association rate constant” value at RecG⋅DNA(A40:B40) [2] (from dissociation rate constant and K i) was 1.6e+06 M⁻¹ s⁻¹.

One may read the Ki as the equilibrium dissociation constant of an inhibitor or competing ligand from its target. Read a low Ki as a stronger hold on the target.
